Reference: patent US12409206B2, “Use of cyclosporine analogues for treating fibrosis” (Hepion Pharmaceuticals, Inc., priority 2020, dated 2025)
Where two headings read alike, the source gives them in different places.

Test system: human precision cut liver slices (PCLS)
Assay: PCLS RNA-Seq, Stimulation Protocol: TGFb/PDGF+CRV vs TGFb/PDGF+Vehicle
Assay type: cell-based
Settings: for fold change in RNA: presence of exogenous TGFβ+PDGF-BB, universal in all donors
Method: PCLS were obtained from 5 human donors who underwent resection of liver cancer. Replicate slices were collected from healthy margins of the resections and cultured for 4 or 6 days depending on the experimental protocol. In the Nonstimulation Protocol slices were cultured for 6 days and treated for the entire period with DMSO vehicle or 5 μM CRV431. In the Stimulation Protocol slices were rested for 1 day and then administered the cytokines, TGFβ and PDGF-BB, for 3 days to stimulate inflammation and fibrosis. DMSO vehicle, CRV431 (1 and 5 μM), Alk5i (10 μM), obeticholic acid (5 μM), elafibranor (5 μM), resmetirom ([…]), and Aramchol (5 μM) were administered individually as drug treatments in the Stimulation Protocol concurrent with TGFβ+PDGF-BB. Culture medium treatments were replaced daily.
Four types of evaluations were conducted on the PCLS: (a) secretion of inflammation and fibrosis biomarkers into the culture medium, (b) histological staining and quantitation of Sirius red as a measure of tissue fibrosis, (c) gene expression of inflammation and fibrosis biomarkers by RT-PCR, and (d) RNA sequencing (RNA-Seq) of the complete transcriptome. Each of the four types of evaluation is described below: • (a) Biomarker secretion. Spent culture medium was collected daily from duplicate slices for each treatment. ELISAs were used to quantify secretion of monocyte chemoattractant protein (MCP-1), interleukin-6 (IL-6), tissue inhibitor of metalloproteinase-1 (TIMP1), hyaluronic acid, fibronectin, and collagen 1α1. For each donor the mean level of biomarker secretion in each treatment group was expressed as a percentage change relative to DMSO vehicle, the percentages averaged for all donors, and finally the mean daily percentage change calculated from all days of evaluation. Results are shown in FIG. 8A (secreted markers-% daily average change). • (b) Sirius red histological staining. […] Sirius red was quantified morphometrically in the histological sections as the percentage area with Sirius red staining in 10 sections from each treatment. In the Nonstimulation Protocol the quantity of Sirius red staining was expressed relative to the vehicle group. In the Stimulation Protocol the quantity of Sirius red staining was expressed relative to nonstimulated PCLS (0%) and TGFβ+PDGF-BB-stimulated+vehicle PCLS (100%). Results are shown in FIG. 8B (Sirius red staining for tissue fibrosis). • (c) Gene expression by RT-PCR. RNA was isolated from duplicate liver slices per treatment at the end of the experiments and evaluated by RT-PCR for 5 markers of inflammation and fibrosis: MCP-1, IL-6, TIMP1, αSMA, and collagen 1α1. β actin was used as a reference gene to calculate relative levels of each target gene RNA. […] Results are shown in FIG. 8C (gene expression by RT-PCR). • (d) Gene expression by RNA-Seq. RNA sequencing of the complete transcriptome (30 million reads per sample) was conducted on vehicle and 5 μM CRV431 treatment groups from 3 donors both from the Nonstimulation and Stimulation Protocols. Data were analyzed by bioinformatics software programs to identify genes that were differentially expressed between vehicle and CRV431 treatments.
For the evaluation done for (d), 12 samples corresponding to 3 different donor slides which underwent 4 different treatments were studied. the comparisons carried out in this analysis are: (1) TGFb/PDGF+CRV vs TGFb/PDGF+Vehicle (V), and (2) Non-stimulated+CRV vs Non-stimulated+Vehicle. […] Table 1. Samples for evaluation (d)
Quality Control check was performed in all samples. All samples had more than 30 million reads and a quality score average >35 for almost all the bases in the sequences. The duplication levels are expected as it is RNA sequencing, and different copies of the same RNA are expected to be present in the samples. All samples had good amount of reads and quality, therefore all samples passed the QC checked and were included in the analysis. […]

`CC[C@@H]1NC(=O)[C@H]([C@H](O)[C@H](C)CCCCCCNC(C)=O)N(C)C(=O)[C@H](C(C)C)N(C)C(=O)[C@H](CC(C)C)N(C)C(=O)[C@H](CC(C)C)N(C)C(=O)[C@@H](C)NC(=O)[C@H](C)NC(=O)[C@H](CC(C)C)N(C)C(=O)[C@H](C(C)C)NC(=O)[C@H](CC(C)C)N(C)C(=O)[C@@H](C)N(C)C1=O` [CRV431] gave a log2FoldChange of 1.025, a log2FoldChange (gene AC009053.1, TGFb/PDGF+CRV vs TGFb/PDGF+Vehicle) of 1.194 and a log2FoldChange (gene AC134772.2, TGFb/PDGF+CRV vs TGFb/PDGF+Vehicle) of −4.561. It also gave a log2FoldChange (gene ADH1B, TGFb/PDGF+CRV vs TGFb/PDGF+Vehicle) of 2.156, a log2FoldChange (gene ADH1C, TGFb/PDGF+CRV vs TGFb/PDGF+Vehicle) of 1.869 and a log2FoldChange (gene ADH4, TGFb/PDGF+CRV vs TGFb/PDGF+Vehicle) of 2.123. For the same compound, the log2FoldChange (gene ADH6, TGFb/PDGF+CRV vs TGFb/PDGF+Vehicle) was 1.903, the log2FoldChange (gene ADIRF, TGFb/PDGF+CRV vs TGFb/PDGF+Vehicle) was 1.402 and the log2FoldChange (gene APLNR, TGFb/PDGF+CRV vs TGFb/PDGF+Vehicle) was 0.844. The log2FoldChange (gene ASPG, TGFb/PDGF+CRV vs TGFb/PDGF+Vehicle) was 0.91, the log2FoldChange (gene ATP13A4, TGFb/PDGF+CRV vs TGFb/PDGF+Vehicle) was −3.082 and the log2FoldChange (gene C7, TGFb/PDGF+CRV vs TGFb/PDGF+Vehicle) was 0.739. The log2FoldChange (gene CA11, TGFb/PDGF+CRV vs TGFb/PDGF+Vehicle) was −1.573, the log2FoldChange (gene CBFA2T2, TGFb/PDGF+CRV vs TGFb/PDGF+Vehicle) was 1.299 and the log2FoldChange (gene CD93, TGFb/PDGF+CRV vs TGFb/PDGF+Vehicle) was −0.613. It also gave a log2FoldChange (gene CHST1, TGFb/PDGF+CRV vs TGFb/PDGF+Vehicle) of −1.087, a log2FoldChange (gene COL5A3, TGFb/PDGF+CRV vs TGFb/PDGF+Vehicle) of −0.842 and a log2FoldChange (gene CXADR, TGFb/PDGF+CRV vs TGFb/PDGF+Vehicle) of 1.61. For the same compound, the log2FoldChange (gene CYP4A11, TGFb/PDGF+CRV vs TGFb/PDGF+Vehicle) was 1.611, the log2FoldChange (gene CYP26A1, TGFb/PDGF+CRV vs TGFb/PDGF+Vehicle) was −1.283 and the log2FoldChange (gene CYP26B1, TGFb/PDGF+CRV vs TGFb/PDGF+Vehicle) was −0.656. For the same compound, the log2FoldChange (gene DCHS1, TGFb/PDGF+CRV vs TGFb/PDGF+Vehicle) was −0.686, the log2FoldChange (gene DLL4, TGFb/PDGF+CRV vs TGFb/PDGF+Vehicle) was −0.69 and the log2FoldChange (gene DUOX2, TGFb/PDGF+CRV vs TGFb/PDGF+Vehicle) was −2.182. The “fold change in RNA” value (gene DUOX2) was −4.5 fold, the log2FoldChange (gene DVL1, TGFb/PDGF+CRV vs TGFb/PDGF+Vehicle) was 0.635 and the log2FoldChange (gene ENSG00000283623 (symbol NA), TGFb/PDGF+CRV vs TGFb/PDGF+Vehicle) was −5.759. For the same compound, the log2FoldChange (gene ERVK13-1, TGFb/PDGF+CRV vs TGFb/PDGF+Vehicle) was −1.125, the log2FoldChange (gene ESAM, TGFb/PDGF+CRV vs TGFb/PDGF+Vehicle) was −0.573 and the log2FoldChange (gene ESM1, TGFb/PDGF+CRV vs TGFb/PDGF+Vehicle) was −1.401. For the same compound, the “fold change in RNA” value (gene ESMI) was −2.6 fold, the log2FoldChange (gene ESR1, TGFb/PDGF+CRV vs TGFb/PDGF+Vehicle) was 3.688 and the log2FoldChange (gene F2RL3, TGFb/PDGF+CRV vs TGFb/PDGF+Vehicle) was −0.711. The log2FoldChange (gene GLYATL1, TGFb/PDGF+CRV vs TGFb/PDGF+Vehicle) was 1.438, the log2FoldChange (gene GPR4, TGFb/PDGF+CRV vs TGFb/PDGF+Vehicle) was −0.9 and the log2FoldChange (gene GRAP, TGFb/PDGF+CRV vs TGFb/PDGF+Vehicle) was −0.772. The log2FoldChange (gene HIST2H2AA4, TGFb/PDGF+CRV vs TGFb/PDGF+Vehicle) was −7.504, the log2FoldChange (gene IGHV4-61, TGFb/PDGF+CRV vs TGFb/PDGF+Vehicle) was 7.957 and the log2FoldChange (gene IGLON5, TGFb/PDGF+CRV vs TGFb/PDGF+Vehicle) was −0.851. For the same compound, the log2FoldChange (gene ISLR2, TGFb/PDGF+CRV vs TGFb/PDGF+Vehicle) was −1.27 and the log2FoldChange (gene KDM6A, TGFb/PDGF+CRV vs TGFb/PDGF+Vehicle) was 0.785.
